Source: article PMC6016998 (2018)

Test system: ochratoxin A aptamer, 0 complementary bp (no tail) (DNA, aptamer) GATCGGGTGTGGGTGGCGTAAAGGGAGCATCGGACA
Assay: electrochemical aptamer-based sensor, square wave voltammetry (KDM)
Conditions: 1X PBS pH 7.4, room temperature

With `CCCC[C@@H](C)[C@@H](OC(=O)C[C@@H](CC(=O)O)C(=O)O)[C@H](C[C@@H](C)C[C@H](O)CCCC[C@@H](O)C[C@H](O)[C@H](C)N)OC(=O)C[C@@H](CC(=O)O)C(=O)O` the binding (tested at 10 µM only, no KDM signal) was “no”.

`C[C@@H]1Cc2c(Cl)cc(C(=O)N[C@@H](Cc3ccccc3)C(=O)O)c(O)c2C(=O)O1` gave a KD (1X PBS (Na+, K+; concentrations not given), undiluted iced coffee rows (ions not given), flowing, KDM of 240 Hz and 20 Hz) of 6.5 ± 0.6 µM.
